Laboratory results: paper PMC8533299, “Synthesis, In Silico Study, and Anti-Cancer Activity of Thiosemicarbazone Derivatives” (Biomedicines, 2021)
Several values for one entry are separate records, joined by “and”; a condition that tells them apart may be missing. Identical values can stand only once.

Legend:
[1] = system: gene expression in MCF-7 human breast cancer cells; experiment: RT-qPCR gene expression in MCF-7 cells; format: cell-based
Method: (§1) Total mRNA was isolated and extracted by Trizol reagent as described in an earlier method. RevertAid First Strand cDNA synthesis kit (Thermo Fisher Scientific, Waltham, MA, USA) was used to synthesize cDNA in a total reaction volume of 20 μL containing oligo-dT primers, RiboLock RNase inhibitor, and reverse transcriptase. Gene-specific primers were used to amplify cDNAs in RT-qPCR machine (Applied Biosystems, Waltham, MA, USA).

[2] = system: gene expression in B16-F0 melanoma cells; experiment: RT-qPCR gene expression in B16-F0 cells; format: cell-based, Mouse
Method: as §1

[3] = Solubility of the obtained compound in solvents; format: physicochemical
Method: 3-Methoxybenzaldehyde thiosemicarbazone (C9H11N3OS; (2E)-2-(3-methoxybenzylidene) hydrazine carbothioamide) (3MBTSc) was prepared by using the previous procedure with slight modifications. It was prepared by refluxing a mixture of thiosemicarbazide ([…], 0.01 mmol) and 3-Methoxybenzaldehyde (2.67 mL, 0.01 mmol) in a mixture of 20 mL distilled water and 20 mL methanol as the solvent medium in the presence of glacial acetic acid (2–3 mL). The reaction mixture was refluxed for about 3–4 h. After cooling, the yellow crystalline solid separated was filtered, washed, and dried. The yield of the compound was 2.16 g and the obtained compound was insoluble in CHCl3, CCl4, CH3CN, H2O, ethanol, and methanol but it was soluble in DMSO and DHF/THF. The following characterization was carried out to confirm the synthesis of 3-Methoxybenzaldehyde thiosemicarbazone by FTIR (cm^−1): v(NH2) 3403s; 3287s; v(-NH) 3150s; 1599s v(C=N); v(C=S) 1246s, 836s, ^1H-NMR (DMSO-d^6, ppm): 11.40 (s, 1H); 8.19 (s, 2H); 6.95–7.44 (m, ar-H); 3.80 (s, 3H), and ^13C-NMR (DMSO-d^6, ppm): 178.9 (s, C=S), 55.76 (s, OCH3), 111-143 (m-Ph-C), 159.6 (s, C=N).
4-Nitrobenzaldehyde thiosemicarbazone ((2E)-2-(4-nitrobenzylidene) hydrazine carbothioamide) (4NBTSc) was synthesized using earlier reported methods with slight modifications. A mixture of 1.51 g (0.01 mmol) of 4-Nitrobenzaldehyde, and 0.914 g (0.01 mmol) thiosemicarbazide was stirred for 2 h using 15 mL of methanol and 15 mL of distilled water as a solvent medium. The resulting yellow solution was allowed to cool. Then, a yellow crystalline solid separated was filtered, washed with diethyl ether and dried. The yield of the compound was 2.30 g and the obtained compound was insoluble in CHCl3, CCl4, CH3CN, H2O, ethanol, and methanol but it was soluble in DMSO and DHF/THF. The following characterization was carried out to confirm the synthesis of 4-Nitrobenzaldehyde thiosemicarbazone by FTIR (cm^−1): v(NH2) 3499m; 3373s; v(-NH) 3197s; 1588s; 1343s (v(NO2); v(C=N); v(C=S) 1137s, 750s, ^1H-NMR (DMSO-d^6, ppm): 11.66 (s, 1H); 8.38 (s, 2H); 8.32–8.03 (m, ar-H), and ^13C-NMR (DMSO-d^6, ppm): 179 (s, C=S), 128-141 (m-Ph-C), 148.06(s, C=N), 124.23 (s, CH).

[4] = MCF-7 cells treated, GAPDH housekeeping gene
[5] = MCF-7 cells, difference of RQ values
[6] = B16-F0 cells treated, GAPDH housekeeping gene
[7] = B16-F0 cells, difference of RQ values

solubility in CHCl3, CCl4, CH3CN, H2O, ethanol, and methanol [3]: insoluble
solubility in DMSO and DHF/THF [3]: soluble
SMILES: NC(=S)N[N-][CH+]c1ccc([N+](=O)[O-])cc1 [4-NBTSc, 4-Nitrobenzaldehyde thiosemicarbazone]
BCl2 Treated (RQ value) [1, 4]: 3.11 ± 0.01
BRCA1 Treated (RQ value) [1, 4]: 2.86 ± 0.455
BRCA2 Treated (RQ value) [1, 4]: 4.13 ± 0.02
Bax Treated (RQ value) [1, 4]: 1.825 ± 0.025
Caspase-3 Treated (RQ value) [1, 4]: 1.85 ± 0.04
Dmp1 Treated (RQ value) [1, 4]: 2.19 ± 0.02
ER Treated (RQ value) [1, 4]: 2.14 ± 0.03
Hdm2 Treated (RQ value) [1, 4]: 3.92 ± 0.045
Myc Treated (RQ value) [1, 4]: 2.35 ± 0.025
PKC Treated (RQ value) [1, 4]: 6.09 ± 0.02
PR Treated (RQ value) [1, 4]: 1.15 ± 0.02
PTEN Treated (RQ value) [1, 4]: 5.09 ± 0.02
RAS Treated (RQ value) [1, 4]: 3.94 ± 0.02
p19 Arf Treated (RQ value) [1, 4]: 0.995 ± 0.025
p21 Treated (RQ value) [1, 4]: 4.12 ± 1.51
p53 Treated (RQ value) [1, 4]: 4.185 ± 0.025
pRB Treated (RQ value) [1, 4]: 3.81 ± 0.02
BCl2 Fold Change (MCF 7 treated-MCF 7 untreated) [1, 5]: 1.02 fold
BRCA1 Fold Change (MCF 7 treated-MCF 7 untreated) [1, 5]: 1.06 fold
BRCA2 Fold Change (MCF 7 treated-MCF 7 untreated) [1, 5]: 2.19 fold
Bax Fold Change (MCF 7 treated-MCF 7 untreated) [1, 5]: 1.1 fold
Caspase-3 Fold Change (MCF 7 treated-MCF 7 untreated) [1, 5]: 1.25 fold
Dmp1 Fold Change (MCF 7 treated-MCF 7 untreated) [1, 5]: -0.3 fold
ER Fold Change (MCF 7 treated-MCF 7 untreated) [1, 5]: -2.7 fold
Hdm2 Fold Change (MCF 7 treated-MCF 7 untreated) [1, 5]: -3.32 fold
Myc Fold Change (MCF 7 treated-MCF 7 untreated) [1, 5]: -5.1 fold
PR Fold Change (MCF 7 treated-MCF 7 untreated) [1, 5]: -0.05 fold
PTEN Fold Change (MCF 7 treated-MCF 7 untreated) [1, 5]: 2.945 fold and 2.95 fold
p19 Arf Fold Change (MCF 7 treated-MCF 7 untreated) [1, 5]: -0.34 fold
p21 Fold Change (MCF 7 treated-MCF 7 untreated) [1, 5]: 1.93 fold
p53 Fold Change (MCF 7 treated-MCF 7 untreated) [1, 5]: 2.025 fold
pRB Fold Change (MCF 7 treated-MCF 7 untreated) [1, 5]: 2.21 fold
BCl2 Treated (RQ value) [2, 6]: 2.36 ± 0.028
BRCA1 Treated (RQ value) [2, 6]: 1.94 ± 0.028
Bax Treated (RQ value) [2, 6]: 6.09 ± 0.028
Caspase-3 Treated (RQ value) [2, 6]: 5.215 ± 0.021
Dmp1 Treated (RQ value) [2, 6]: 7.19 ± 0.028
Fos Treated (RQ value) [2, 6]: 2.905 ± 0.021
MTS 1 Treated (RQ value) [2, 6]: 4.865 ± 0.021
Mdm2 Treated (RQ value) [2, 6]: 6.1 ± 0.014
PKC Treated (RQ value) [2, 6]: 7.14 ± 0.028
PTEN Treated (RQ value) [2, 6]: 6.97 ± 0.014
RAS Treated (RQ value) [2, 6]: 4.145 ± 0.035
p19 Arf Treated (RQ value) [2, 6]: 3.145 ± 0.035
p21 Treated (RQ value) [2, 6]: 4.12 ± 0.014
p53 Treated (RQ value) [2, 6]: 3.185 ± 0.021
pRB Treated (RQ value) [2, 6]: 1.06 ± 0.085
BCl2 Fold Change (B16-F0 treated-B16-F0 untreated) [2, 7]: 0.27 fold
BRCA1 Fold Change (B16-F0 treated-B16-F0 untreated) [2, 7]: 0.14 fold
Bax Fold Change (B16-F0 treated-B16-F0 untreated) [2, 7]: 3.355 fold and 3.35 fold
Caspase-3 Fold Change (B16-F0 treated-B16-F0 untreated) [2, 7]: 2.615 fold
Dmp1 Fold Change (B16-F0 treated-B16-F0 untreated) [2, 7]: 4.7 fold
MTS 1 Fold Change (B16-F0 treated-B16-F0 untreated) [2, 7]: 2.93 fold
Mdm2 Fold Change (B16-F0 treated-B16-F0 untreated) [2, 7]: -1.14 fold
PTEN Fold Change (B16-F0 treated-B16-F0 untreated) [2, 7]: 4.825 fold and 4.82 fold
p19 Arf Fold Change (B16-F0 treated-B16-F0 untreated) [2, 7]: 1.81 fold
p21 Fold Change (B16-F0 treated-B16-F0 untreated) [2, 7]: 1.93 fold
p53 Fold Change (B16-F0 treated-B16-F0 untreated) [2, 7]: 1.025 fold
pRB Fold Change (B16-F0 treated-B16-F0 untreated) [2, 7]: -0.54 fold
